Laboratory results reported in patent US20160213003A1, “APPLICATION OF POLYOXOMETALATE IN PREPARATION OF DISINFECTANT FOR STERILIZING AND REMOVING FORMALDEHYDE” (NINGBO YUCHEN ENVIROCLEAN TECH CO., LTD., priority 2013, published 2016).

Tested on: Staphylococcus aureus
Assay: Kirby-Bauer diffusion detection of sterilizing capability (inhibition zone diameter)
Format: cell-based
Conditions: for sterilization effect without oxygen ventilation (diameter, mm): pH 10, no oxygen ventilation
Description: In catalyst screening, Staphylococcus aureus was used as the microorganisms, and a trypsin soybean agar was used as a culture medium. The material powder to be screened was prepared into a homogeneous mixture solution by pure water in a 3% weight/volume ratio (i.e., 3 g powder/100 mL water), then immersed with a neutral precise filtration filter paper of 5 mm diameter for about 10 seconds, then placed into a Kirby-Bauer diffusion detection plate. A Kirby-Bauer diffusion detection plate was placed in a sealed glass cover, and the air was provided into the glass cover at a speed of about 10 liters per minute. The sterilizing capability of the catalyst was measured by the diameter of the zone without bacterial growth around the filter paper. A variety of polyoxometalates were respectively prepared into a water solution with a 3% mass concentration, and pH was controlled to 10. The sterilizing capability was also detected by Kirby-Bauer diffusion detection method in which Staphylococcus aureus was used as the microorganisms, respectively including no oxygen ventilation and oxygen ventilation. When oxygen was ventilated, the condition for oxygen ventilation was the same, the temperature was room temperature (25° C.) and 37° C. […] Potassium polytungstate (K3[PW12O40]) was respectively prepared into water solutions with mass concentration of 0.5%, 1.0%, 2.0%, 3%, 5%, 10%, and 15%, and the pH were controlled to 10. The sterilizing capability was also detected by Kirby-Bauer diffusion detection method in which Staphylococcus aureus was used as the microorganisms, the condition for oxygen ventilation was the same, and the temperature was room temperature (25° C.) and 37° C. […] Potassium polytungstate (K3[PW12O40]) was respectively prepared into water solutions with a concentration of 3% and pH of 6, 7, 8, 8.5, 9, 9.5, 10, 10.5, 11, 11.5, 12. The sterilizing capability was also detected by Kirby-Bauer diffusion detection method in which Staphylococcus aureus was used as the microorganisms, the condition for oxygen ventilation was the same, and the temperature was room temperature (25° C.) and 37° C.

[1] = 3% water solution, pH 10, oxygen ventilation, 25° C.
[2] = 3% water solution, pH 10, oxygen ventilation, 37° C.

Substance: Na3[PW12O40]
- sterilization effect without oxygen ventilation (diameter, mm) (3% water solution): 3 mm
- sterilization effect at 25° C. (diameter, mm) [1]: 19 mm
- sterilization effect at 37° C. (diameter, mm) [2]: 18 mm

Substance: Potassium polytungstate [K3[PW12O40]]
- sterilization effect at 25° C. (diameter, mm) (3% water solution, pH 6, oxygen ventilation, 25° C.): 5 mm
- sterilization effect at 37° C. (diameter, mm) (3% water solution, pH 6, oxygen ventilation, 37° C.): 6 mm
- sterilization effect at 25° C. (diameter, mm) (3% water solution, pH 7, oxygen ventilation, 25° C.): 6 mm
- sterilization effect at 37° C. (diameter, mm) (3% water solution, pH 7, oxygen ventilation, 37° C.): 8 mm
- sterilization effect at 25° C. (diameter, mm) (3% water solution, pH 8, oxygen ventilation, 25° C.): 8 mm
- sterilization effect at 37° C. (diameter, mm) (3% water solution, pH 8, oxygen ventilation, 37° C.): 11 mm
- sterilization effect at 25° C. (diameter, mm) (3% water solution, pH 8.5, oxygen ventilation, 25° C.): 14 mm
- sterilization effect at 37° C. (diameter, mm) (3% water solution, pH 8.5, oxygen ventilation, 37° C.): 15 mm
- sterilization effect at 25° C. (diameter, mm) (3% water solution, pH 9, oxygen ventilation, 25° C.): 17 mm
- sterilization effect at 37° C. (diameter, mm) (3% water solution, pH 9, oxygen ventilation, 37° C.): 18 mm
- sterilization effect at 25° C. (diameter, mm) (3% water solution, pH 9.5, oxygen ventilation, 25° C.): 20 mm
- sterilization effect at 37° C. (diameter, mm) (3% water solution, pH 9.5, oxygen ventilation, 37° C.): 19 mm
- sterilization effect without oxygen ventilation (diameter, mm) (3% water solution): 3 mm
- sterilization effect at 25° C. (diameter, mm) [1]: 19 mm
- sterilization effect at 25° C. (diameter, mm) (3% water solution, pH 10, oxygen ventilation, 25° C. (pH series)): 19 mm
- sterilization effect at 37° C. (diameter, mm) [2]: 19 mm
- sterilization effect at 37° C. (diameter, mm) (3% water solution, pH 10, oxygen ventilation, 37° C. (pH series)): 19 mm
- sterilization effect at 25° C. (diameter, mm) (3% water solution, pH 10.5, oxygen ventilation, 25° C.): 18 mm
- sterilization effect at 37° C. (diameter, mm) (3% water solution, pH 10.5, oxygen ventilation, 37° C.): 19 mm
- sterilization effect at 25° C. (diameter, mm) (3% water solution, pH 11, oxygen ventilation, 25° C.): 20 mm
- sterilization effect at 37° C. (diameter, mm) (3% water solution, pH 11, oxygen ventilation, 37° C.): 20 mm
- sterilization effect at 25° C. (diameter, mm) (3% water solution, pH 11.5, oxygen ventilation, 25° C.): 20 mm
- sterilization effect at 37° C. (diameter, mm) (3% water solution, pH 11.5, oxygen ventilation, 37° C.): 20 mm
- sterilization effect at 25° C. (diameter, mm) (3% water solution, pH 12, oxygen ventilation, 25° C.): 20 mm
- sterilization effect at 37° C. (diameter, mm) (3% water solution, pH 12, oxygen ventilation, 37° C.): 20 mm
- sterilization effect at 25° C. (diameter, mm) (concentration 0.5%, pH 10, oxygen ventilation, 25° C.): 8 mm
- sterilization effect at 37° C. (diameter, mm) (concentration 0.5%, pH 10, oxygen ventilation, 37° C.): 9 mm
- sterilization effect at 25° C. (diameter, mm) (concentration 1.0%, pH 10, oxygen ventilation, 25° C.): 11 mm
- sterilization effect at 37° C. (diameter, mm) (concentration 1.0%, pH 10, oxygen ventilation, 37° C.): 10 mm
- sterilization effect at 25° C. (diameter, mm) (concentration 2.0%, pH 10, oxygen ventilation, 25° C.): 14 mm
- sterilization effect at 37° C. (diameter, mm) (concentration 2.0%, pH 10, oxygen ventilation, 37° C.): 16 mm
- sterilization effect at 25° C. (diameter, mm) (concentration 3.0%, pH 10, oxygen ventilation, 25° C.): 16 mm
- sterilization effect at 37° C. (diameter, mm) (concentration 3.0%, pH 10, oxygen ventilation, 37° C.): 18 mm
- sterilization effect at 25° C. (diameter, mm) (concentration 5%, pH 10, oxygen ventilation, 25° C.): 18 mm
- sterilization effect at 37° C. (diameter, mm) (concentration 5%, pH 10, oxygen ventilation, 37° C.): 19 mm
- sterilization effect at 25° C. (diameter, mm) (concentration 10%, pH 10, oxygen ventilation, 25° C.): 20 mm
- sterilization effect at 37° C. (diameter, mm) (concentration 10%, pH 10, oxygen ventilation, 37° C.): 20 mm
- sterilization effect at 25° C. (diameter, mm) (concentration 15%, pH 10, oxygen ventilation, 25° C.): 19 mm
- sterilization effect at 37° C. (diameter, mm) (concentration 15%, pH 10, oxygen ventilation, 37° C.): 18 mm
